Results published in article doi:10.1101/2023.11.24.568596v1 (biorxiv, 2023).

Key:
Details in all cases: binder
MST1 = biological target: T1, MST1 (Homo sapiens, UniProt Q13043)
T1 sequence (Q13043 1-487): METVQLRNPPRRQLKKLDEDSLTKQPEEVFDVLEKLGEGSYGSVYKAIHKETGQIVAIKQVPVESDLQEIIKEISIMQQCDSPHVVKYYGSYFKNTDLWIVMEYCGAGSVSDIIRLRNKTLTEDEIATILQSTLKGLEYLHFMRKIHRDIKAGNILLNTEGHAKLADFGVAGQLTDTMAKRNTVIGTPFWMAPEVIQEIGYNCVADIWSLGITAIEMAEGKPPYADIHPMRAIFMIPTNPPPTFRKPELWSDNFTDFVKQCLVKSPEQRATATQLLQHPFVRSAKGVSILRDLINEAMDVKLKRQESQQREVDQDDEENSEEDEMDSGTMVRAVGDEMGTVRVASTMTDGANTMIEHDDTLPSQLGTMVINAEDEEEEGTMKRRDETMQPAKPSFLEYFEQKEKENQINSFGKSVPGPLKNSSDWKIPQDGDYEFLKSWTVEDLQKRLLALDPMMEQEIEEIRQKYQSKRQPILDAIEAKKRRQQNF

PHKG2 = biological target: T2, PHKG2 (Homo sapiens, UniProt P15735)
T2 sequence (P15735 1-406): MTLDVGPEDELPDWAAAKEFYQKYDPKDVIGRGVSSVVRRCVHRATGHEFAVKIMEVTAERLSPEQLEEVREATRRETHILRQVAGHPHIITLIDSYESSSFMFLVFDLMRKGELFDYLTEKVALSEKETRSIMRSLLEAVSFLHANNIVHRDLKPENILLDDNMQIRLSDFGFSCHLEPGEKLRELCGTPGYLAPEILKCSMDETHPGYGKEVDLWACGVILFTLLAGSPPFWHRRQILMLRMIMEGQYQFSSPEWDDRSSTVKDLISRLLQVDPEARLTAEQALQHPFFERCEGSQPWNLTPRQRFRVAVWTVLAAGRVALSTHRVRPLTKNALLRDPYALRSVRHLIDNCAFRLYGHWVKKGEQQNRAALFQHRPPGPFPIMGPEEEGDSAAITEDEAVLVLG

MST3 = MST3 (Homo sapiens, UniProt Q9Y6E0)
CDKL1 = CDKL1 (Homo sapiens, UniProt Q00532)
CLK1 = CLK1 (Homo sapiens, UniProt P49759)
MRCKa = MRCKa (Homo sapiens, UniProt Q5VT25)
CK2a1 = CK2a1 (Homo sapiens, UniProt P68400)
DRAK1 = biological target: T3, DRAK1 (Homo sapiens, UniProt Q9UEE5)
T3 sequence (Q9UEE5 1-414): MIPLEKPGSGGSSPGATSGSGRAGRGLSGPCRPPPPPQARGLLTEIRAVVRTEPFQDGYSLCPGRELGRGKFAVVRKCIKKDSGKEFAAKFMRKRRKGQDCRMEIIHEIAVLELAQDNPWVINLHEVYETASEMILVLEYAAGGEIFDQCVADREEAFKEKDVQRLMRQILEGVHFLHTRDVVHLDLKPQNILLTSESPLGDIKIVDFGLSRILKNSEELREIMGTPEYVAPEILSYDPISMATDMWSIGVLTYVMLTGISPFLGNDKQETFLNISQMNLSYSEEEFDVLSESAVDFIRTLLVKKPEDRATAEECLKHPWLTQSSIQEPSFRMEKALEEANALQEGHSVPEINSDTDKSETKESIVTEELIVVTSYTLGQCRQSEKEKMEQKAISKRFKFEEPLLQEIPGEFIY

FGFR2 = FGFR2 (Homo sapiens, UniProt P21802)
AAK1 = AAK1 (Homo sapiens, UniProt Q2M2I8)
DYRK1A = DYRK1A (Homo sapiens, UniProt Q13627)
CK1e = CK1e (Homo sapiens, UniProt P49674)
DYRK2 = biological target: T4, DYRK2 (Homo sapiens, UniProt Q92630)
T4 sequence (Q92630 1-601): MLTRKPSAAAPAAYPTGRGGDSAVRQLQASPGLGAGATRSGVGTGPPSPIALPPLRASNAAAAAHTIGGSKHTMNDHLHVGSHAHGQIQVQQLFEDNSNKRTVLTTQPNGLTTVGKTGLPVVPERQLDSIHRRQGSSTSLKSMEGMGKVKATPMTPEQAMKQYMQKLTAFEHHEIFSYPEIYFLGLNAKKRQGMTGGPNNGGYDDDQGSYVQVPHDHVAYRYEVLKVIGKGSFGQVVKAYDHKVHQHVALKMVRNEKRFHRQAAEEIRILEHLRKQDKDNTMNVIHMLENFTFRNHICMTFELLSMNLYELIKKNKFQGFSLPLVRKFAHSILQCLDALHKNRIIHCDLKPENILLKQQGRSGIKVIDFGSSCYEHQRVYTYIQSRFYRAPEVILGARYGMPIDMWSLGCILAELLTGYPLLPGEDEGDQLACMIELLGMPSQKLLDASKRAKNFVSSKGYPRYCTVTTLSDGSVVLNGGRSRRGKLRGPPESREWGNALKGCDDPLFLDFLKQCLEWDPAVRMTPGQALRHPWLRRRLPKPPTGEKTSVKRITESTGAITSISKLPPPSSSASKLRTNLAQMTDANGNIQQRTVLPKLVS

MRCKa, sequence (Q5VT25 whole entry): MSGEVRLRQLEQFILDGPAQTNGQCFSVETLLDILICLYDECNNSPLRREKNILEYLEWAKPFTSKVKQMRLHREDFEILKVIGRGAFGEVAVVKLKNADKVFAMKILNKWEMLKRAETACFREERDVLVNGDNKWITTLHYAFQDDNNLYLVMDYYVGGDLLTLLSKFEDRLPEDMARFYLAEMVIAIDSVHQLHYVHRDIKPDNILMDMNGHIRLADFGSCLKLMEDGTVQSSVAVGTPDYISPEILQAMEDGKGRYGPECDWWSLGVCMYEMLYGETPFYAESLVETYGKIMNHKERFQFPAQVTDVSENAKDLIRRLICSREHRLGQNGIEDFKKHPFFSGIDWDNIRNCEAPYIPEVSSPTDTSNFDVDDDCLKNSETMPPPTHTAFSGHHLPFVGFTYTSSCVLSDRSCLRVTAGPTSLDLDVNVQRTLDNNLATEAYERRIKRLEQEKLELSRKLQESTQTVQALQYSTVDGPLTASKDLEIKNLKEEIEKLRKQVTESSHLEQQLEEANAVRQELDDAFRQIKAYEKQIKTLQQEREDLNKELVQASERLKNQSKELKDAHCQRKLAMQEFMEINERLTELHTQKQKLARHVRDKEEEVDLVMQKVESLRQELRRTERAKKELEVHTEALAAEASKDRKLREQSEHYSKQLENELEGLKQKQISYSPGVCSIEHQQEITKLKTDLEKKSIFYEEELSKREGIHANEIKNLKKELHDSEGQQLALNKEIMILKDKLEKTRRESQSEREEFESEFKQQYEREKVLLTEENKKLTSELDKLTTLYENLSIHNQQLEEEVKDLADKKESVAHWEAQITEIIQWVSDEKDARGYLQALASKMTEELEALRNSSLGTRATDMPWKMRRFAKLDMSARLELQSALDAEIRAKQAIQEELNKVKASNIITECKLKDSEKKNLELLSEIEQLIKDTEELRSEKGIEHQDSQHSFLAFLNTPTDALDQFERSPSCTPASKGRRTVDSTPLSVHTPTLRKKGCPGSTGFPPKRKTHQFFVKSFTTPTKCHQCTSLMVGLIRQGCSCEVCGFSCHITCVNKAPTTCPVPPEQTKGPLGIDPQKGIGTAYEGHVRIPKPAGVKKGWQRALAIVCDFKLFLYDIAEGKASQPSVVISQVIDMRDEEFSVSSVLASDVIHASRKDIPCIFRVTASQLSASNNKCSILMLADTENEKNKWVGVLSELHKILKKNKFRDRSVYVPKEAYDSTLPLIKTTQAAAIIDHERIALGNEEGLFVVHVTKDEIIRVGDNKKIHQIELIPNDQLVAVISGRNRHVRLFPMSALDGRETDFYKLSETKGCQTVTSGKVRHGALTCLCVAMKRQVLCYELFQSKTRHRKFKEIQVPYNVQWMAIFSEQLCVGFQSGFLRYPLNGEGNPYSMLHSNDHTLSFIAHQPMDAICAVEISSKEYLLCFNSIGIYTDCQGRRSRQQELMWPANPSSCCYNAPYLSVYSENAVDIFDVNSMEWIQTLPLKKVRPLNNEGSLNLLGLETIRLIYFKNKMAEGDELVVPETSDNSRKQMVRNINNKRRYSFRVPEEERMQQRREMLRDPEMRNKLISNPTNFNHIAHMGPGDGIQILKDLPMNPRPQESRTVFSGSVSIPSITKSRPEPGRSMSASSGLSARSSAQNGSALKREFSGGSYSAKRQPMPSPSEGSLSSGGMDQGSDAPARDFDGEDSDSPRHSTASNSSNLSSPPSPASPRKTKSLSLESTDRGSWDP
AAK1, sequence (Q2M2I8 whole entry): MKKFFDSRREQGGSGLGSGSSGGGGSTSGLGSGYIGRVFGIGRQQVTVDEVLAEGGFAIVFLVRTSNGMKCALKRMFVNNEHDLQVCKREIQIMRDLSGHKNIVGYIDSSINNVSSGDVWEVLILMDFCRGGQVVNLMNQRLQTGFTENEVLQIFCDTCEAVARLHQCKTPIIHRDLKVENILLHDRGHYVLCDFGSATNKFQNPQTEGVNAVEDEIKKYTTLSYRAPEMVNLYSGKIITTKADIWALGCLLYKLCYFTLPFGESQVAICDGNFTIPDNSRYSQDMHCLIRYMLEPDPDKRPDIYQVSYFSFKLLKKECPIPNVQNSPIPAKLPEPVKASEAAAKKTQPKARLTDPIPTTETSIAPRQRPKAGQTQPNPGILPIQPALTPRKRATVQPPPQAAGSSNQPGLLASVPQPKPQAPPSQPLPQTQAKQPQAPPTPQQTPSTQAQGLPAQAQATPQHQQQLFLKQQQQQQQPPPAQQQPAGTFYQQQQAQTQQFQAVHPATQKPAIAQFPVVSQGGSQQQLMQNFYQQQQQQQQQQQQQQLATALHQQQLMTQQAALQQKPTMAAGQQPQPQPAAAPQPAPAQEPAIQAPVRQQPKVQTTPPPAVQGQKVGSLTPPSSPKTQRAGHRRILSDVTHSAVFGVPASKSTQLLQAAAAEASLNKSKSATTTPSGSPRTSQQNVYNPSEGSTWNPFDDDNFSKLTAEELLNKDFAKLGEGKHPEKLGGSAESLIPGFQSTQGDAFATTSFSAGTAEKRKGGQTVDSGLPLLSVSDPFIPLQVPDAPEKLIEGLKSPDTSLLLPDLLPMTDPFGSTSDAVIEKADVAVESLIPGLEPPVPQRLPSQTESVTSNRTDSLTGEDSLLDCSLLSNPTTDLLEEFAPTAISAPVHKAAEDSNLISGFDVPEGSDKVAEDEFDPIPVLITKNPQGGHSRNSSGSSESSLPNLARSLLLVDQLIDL
CLK1, sequence (P49759 whole entry): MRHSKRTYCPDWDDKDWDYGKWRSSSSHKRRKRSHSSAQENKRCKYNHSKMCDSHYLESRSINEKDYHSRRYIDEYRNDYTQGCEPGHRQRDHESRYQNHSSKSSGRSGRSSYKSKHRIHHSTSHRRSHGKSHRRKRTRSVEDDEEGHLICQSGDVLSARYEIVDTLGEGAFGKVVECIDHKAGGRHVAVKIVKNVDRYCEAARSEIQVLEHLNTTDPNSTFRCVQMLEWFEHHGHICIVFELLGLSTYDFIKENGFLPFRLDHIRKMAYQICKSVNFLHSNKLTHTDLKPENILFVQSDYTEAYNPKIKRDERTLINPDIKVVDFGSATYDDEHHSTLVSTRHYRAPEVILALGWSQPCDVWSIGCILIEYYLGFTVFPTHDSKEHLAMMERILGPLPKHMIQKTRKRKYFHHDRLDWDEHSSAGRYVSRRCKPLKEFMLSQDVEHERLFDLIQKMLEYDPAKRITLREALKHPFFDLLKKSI
MST3, sequence (Q9Y6E0 whole entry): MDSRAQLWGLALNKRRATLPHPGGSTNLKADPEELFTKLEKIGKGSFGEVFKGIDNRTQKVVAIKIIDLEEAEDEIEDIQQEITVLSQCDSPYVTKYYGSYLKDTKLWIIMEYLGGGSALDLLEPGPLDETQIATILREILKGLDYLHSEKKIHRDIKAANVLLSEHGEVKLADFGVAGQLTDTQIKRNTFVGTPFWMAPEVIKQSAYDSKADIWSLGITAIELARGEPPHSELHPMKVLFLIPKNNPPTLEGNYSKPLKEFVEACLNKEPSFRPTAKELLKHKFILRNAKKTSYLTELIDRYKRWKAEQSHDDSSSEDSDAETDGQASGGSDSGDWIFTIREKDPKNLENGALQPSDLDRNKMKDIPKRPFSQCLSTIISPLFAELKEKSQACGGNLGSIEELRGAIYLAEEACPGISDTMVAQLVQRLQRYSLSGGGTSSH
CK1e, sequence (P49674 whole entry): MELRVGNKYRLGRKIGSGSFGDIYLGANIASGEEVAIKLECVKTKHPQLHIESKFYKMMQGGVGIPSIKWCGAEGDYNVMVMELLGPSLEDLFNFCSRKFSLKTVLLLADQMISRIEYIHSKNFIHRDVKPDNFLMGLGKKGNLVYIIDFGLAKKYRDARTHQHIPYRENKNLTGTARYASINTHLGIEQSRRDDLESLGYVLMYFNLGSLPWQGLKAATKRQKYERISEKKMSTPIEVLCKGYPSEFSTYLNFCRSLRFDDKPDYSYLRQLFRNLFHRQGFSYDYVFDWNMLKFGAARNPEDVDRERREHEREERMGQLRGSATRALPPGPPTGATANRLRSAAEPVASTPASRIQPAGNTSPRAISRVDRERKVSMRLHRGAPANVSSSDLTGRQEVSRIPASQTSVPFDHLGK
CDKL1, sequence (Q00532 whole entry): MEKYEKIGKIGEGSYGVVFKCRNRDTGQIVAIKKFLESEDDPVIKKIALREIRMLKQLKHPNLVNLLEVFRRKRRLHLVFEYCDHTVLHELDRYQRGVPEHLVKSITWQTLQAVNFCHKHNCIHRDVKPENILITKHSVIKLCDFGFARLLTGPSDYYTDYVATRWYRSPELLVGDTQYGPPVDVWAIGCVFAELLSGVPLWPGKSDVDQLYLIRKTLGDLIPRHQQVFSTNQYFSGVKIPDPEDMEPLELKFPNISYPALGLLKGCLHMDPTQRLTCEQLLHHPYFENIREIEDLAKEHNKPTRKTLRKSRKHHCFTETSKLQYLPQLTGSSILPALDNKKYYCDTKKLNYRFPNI
CK2a1, sequence (P68400 whole entry): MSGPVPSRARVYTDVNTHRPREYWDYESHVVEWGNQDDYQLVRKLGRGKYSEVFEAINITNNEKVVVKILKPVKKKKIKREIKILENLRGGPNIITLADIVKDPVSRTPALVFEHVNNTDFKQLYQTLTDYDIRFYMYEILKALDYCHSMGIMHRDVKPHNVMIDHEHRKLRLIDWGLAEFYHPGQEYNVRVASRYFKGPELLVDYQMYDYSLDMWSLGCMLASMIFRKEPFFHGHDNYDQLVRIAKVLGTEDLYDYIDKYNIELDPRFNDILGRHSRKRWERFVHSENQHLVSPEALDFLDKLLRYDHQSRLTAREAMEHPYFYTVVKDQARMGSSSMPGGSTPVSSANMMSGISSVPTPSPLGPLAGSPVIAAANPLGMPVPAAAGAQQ

Cc1cccc(-c2ccc(-c3cc4cnc(NCCCN5CCCC5=O)nc4n(CCCCN)c3=O)c(Cl)c2)n1 [compound 27, MR30]
ΔTm MR30 (27) (MST1): -1.0 °C | ΔTm MR30 (27) (PHKG2): 1.2 °C | ΔTm MR30 (27) (MST3): 9.8 °C | ΔTm MR30 (27) (CDKL1): 0.9 °C | ΔTm MR30 (27) (CLK1): -0.7 °C | ΔTm MR30 (27) (MRCKa): -0.2 °C | ΔTm MR30 (27) (CK2a1): -0.4 °C | ΔTm MR30 (27) (DRAK1): -0.4 °C | ΔTm MR30 (27) (FGFR2): 1.0 °C | ΔTm MR30 (27) (AAK1): -0.5 °C | ΔTm MR30 (27) (DYRK1A): -1.2 °C | ΔTm MR30 (27) (CK1e): 6.4 °C | ΔTm MR30 (27) (DYRK2): -0.4 °C

Cc1cccc(-c2ccc(-c3cc4cnc(Nc5cc(C(F)(F)F)ccc5C)nc4n(CCCCN)c3=O)c(Cl)c2)n1 [compound 28, 8-(4-Aminobutyl)-6-(2-chloro-4-(6-methylpyridin-2-yl)phenyl)-2-((2-methyl-5-(trifluoromethyl)phenyl)amino)pyrido[2,3-d]pyrimidin-7(8H)-one]
ΔTm 28 (MST1): -1.6 °C | ΔTm 28 (PHKG2): 2.4 °C | ΔTm 28 (MST3): 12.1 °C | ΔTm 28 (CDKL1): 0.7 °C | ΔTm 28 (CLK1): 0.6 °C | ΔTm 28 (MRCKa): -1.0 °C | ΔTm 28 (CK2a1): -0.6 °C | ΔTm 28 (DRAK1): 0.3 °C | ΔTm 28 (FGFR2): 3.8 °C | ΔTm 28 (AAK1): -0.1 °C | ΔTm 28 (DYRK1A): 0.2 °C | ΔTm 28 (CK1e): 4.9 °C | ΔTm 28 (DYRK2): -0.7 °C

Cc1cccc(-c2ccc(-c3cc4cnc(NCCCN5CCNCC5)nc4n(CCCCN)c3=O)c(Cl)c2)n1 [compound 29, 8-(4-Aminobutyl)-6-(2-chloro-4-(6-methylpyridin-2-yl)phenyl)-2-((3-(piperazin-1-yl)propyl)amino)pyrido[2,3-d]pyrimidin-7(8H)-one]
ΔTm 29 (MST1): -0.5 °C | ΔTm 29 (PHKG2): 2.2 °C | ΔTm 29 (MST3): 14.3 °C | ΔTm 29 (CDKL1): 0.5 °C | ΔTm 29 (CLK1): -0.3 °C | ΔTm 29 (MRCKa): -0.3 °C | ΔTm 29 (CK2a1): -0.2 °C | ΔTm 29 (DRAK1): 1.3 °C | ΔTm 29 (FGFR2): 1.7 °C | ΔTm 29 (AAK1): 0.0 °C | ΔTm 29 (DYRK1A): -0.3 °C | ΔTm 29 (CK1e): 5.8 °C | ΔTm 29 (DYRK2): -0.2 °C

Cc1cccc(-c2ccc(-c3cc4cnc(Nc5ccc(CCCO)cc5)nc4n(CCCCN)c3=O)c(Cl)c2)n1 [compound 30, 8-(4-Aminobutyl)-6-(2-chloro-4-(6-methylpyridin-2-yl)phenyl)-2-((4-(3-hydroxypropyl)phenyl)amino)pyrido[2,3-d]pyrimidin-7(8H)-one]
ΔTm 30 (MST1): 1.7 °C | ΔTm 30 (PHKG2): 6.7 °C | ΔTm 30 (MST3): 15.5 °C | ΔTm 30 (CDKL1): 1.6 °C | ΔTm 30 (CLK1): -0.2 °C | ΔTm 30 (MRCKa): 4.4 °C | ΔTm 30 (CK2a1): -1.1 °C | ΔTm 30 (DRAK1): 4.0 °C | ΔTm 30 (FGFR2): 3.9 °C | ΔTm 30 (AAK1): 4.1 °C | ΔTm 30 (DYRK1A): -1.8 °C | ΔTm 30 (CK1e): 8.2 °C | ΔTm 30 (DYRK2): -1.1 °C

Cc1cccc(-c2ccc(-c3cc4cnc(Nc5ccc(O)cc5)nc4n(CCCCN)c3=O)c(Cl)c2)n1 [compound 31, 8-(4-Aminobutyl)-6-(2-chloro-4-(6-methylpyridin-2-yl)phenyl)-2-((4-hydroxyphenyl)amino) pyrido[2,3-d]pyrimidin-7(8H)-one]
ΔTm 31 (MST1): 2.0 °C | ΔTm 31 (PHKG2): 6.4 °C | ΔTm 31 (MST3): 16.1 °C | ΔTm 31 (CDKL1): 2.1 °C | ΔTm 31 (CLK1): 0.8 °C | ΔTm 31 (MRCKa): 3.3 °C | ΔTm 31 (CK2a1): 0.0 °C | ΔTm 31 (DRAK1): 4.5 °C | ΔTm 31 (FGFR2): 3.9 °C | ΔTm 31 (AAK1): 4.0 °C | ΔTm 31 (DYRK1A): -1.0 °C | ΔTm 31 (CK1e): 7.5 °C | ΔTm 31 (DYRK2): -0.8 °C

Cc1cccc(-c2ccc(-c3cc4cnc(Nc5ccc(C)c(O)c5)nc4n(CCCCN)c3=O)c(Cl)c2)n1 [compound 32, 8-(4-Aminobutyl)-6-(2-chloro-4-(6-methylpyridin-2-yl)phenyl)-2-((3-hydroxy-4-methylphenyl)amino)pyrido[2,3-d]pyrimidin-7(8H)-one]
ΔTm 32 (MST1): 1.6 °C | ΔTm 32 (PHKG2): 6.4 °C | ΔTm 32 (MST3): 15.4 °C | ΔTm 32 (CDKL1): 1.9 °C | ΔTm 32 (CLK1): 0.7 °C | ΔTm 32 (MRCKa): 4.0 °C | ΔTm 32 (CK2a1): -0.3 °C | ΔTm 32 (DRAK1): 5.1 °C | ΔTm 32 (FGFR2): 4.2 °C | ΔTm 32 (AAK1): 4.0 °C | ΔTm 32 (DYRK1A): -0.4 °C | ΔTm 32 (CK1e): 7.7 °C | ΔTm 32 (DYRK2): -1.4 °C
